Measurements: ChEMBL document CHEMBL4602647, “Protective effects of 10,11-dihydro-5H-dibenzo[b,f]azepine hydroxamates on vascular cognitive impairment” (Eur J Med Chem, 2020)
Activity calls are given as the source filed them. No cut-off for these calls is given here.

Tests used:
[1] = target: T1, Protein deacetylase HDAC6 (Homo sapiens, UniProt Q9UBN7); test: Inhibition of recombinant human N-terminal GST-tagged HDAC6 (1 to 1215 residues) expressed in baculovirus infected insect cells using RHK-K(Ac)-AMC as substrate after 90 mins by fluorimetry analysis
T1 sequence (Q9UBN7 whole entry): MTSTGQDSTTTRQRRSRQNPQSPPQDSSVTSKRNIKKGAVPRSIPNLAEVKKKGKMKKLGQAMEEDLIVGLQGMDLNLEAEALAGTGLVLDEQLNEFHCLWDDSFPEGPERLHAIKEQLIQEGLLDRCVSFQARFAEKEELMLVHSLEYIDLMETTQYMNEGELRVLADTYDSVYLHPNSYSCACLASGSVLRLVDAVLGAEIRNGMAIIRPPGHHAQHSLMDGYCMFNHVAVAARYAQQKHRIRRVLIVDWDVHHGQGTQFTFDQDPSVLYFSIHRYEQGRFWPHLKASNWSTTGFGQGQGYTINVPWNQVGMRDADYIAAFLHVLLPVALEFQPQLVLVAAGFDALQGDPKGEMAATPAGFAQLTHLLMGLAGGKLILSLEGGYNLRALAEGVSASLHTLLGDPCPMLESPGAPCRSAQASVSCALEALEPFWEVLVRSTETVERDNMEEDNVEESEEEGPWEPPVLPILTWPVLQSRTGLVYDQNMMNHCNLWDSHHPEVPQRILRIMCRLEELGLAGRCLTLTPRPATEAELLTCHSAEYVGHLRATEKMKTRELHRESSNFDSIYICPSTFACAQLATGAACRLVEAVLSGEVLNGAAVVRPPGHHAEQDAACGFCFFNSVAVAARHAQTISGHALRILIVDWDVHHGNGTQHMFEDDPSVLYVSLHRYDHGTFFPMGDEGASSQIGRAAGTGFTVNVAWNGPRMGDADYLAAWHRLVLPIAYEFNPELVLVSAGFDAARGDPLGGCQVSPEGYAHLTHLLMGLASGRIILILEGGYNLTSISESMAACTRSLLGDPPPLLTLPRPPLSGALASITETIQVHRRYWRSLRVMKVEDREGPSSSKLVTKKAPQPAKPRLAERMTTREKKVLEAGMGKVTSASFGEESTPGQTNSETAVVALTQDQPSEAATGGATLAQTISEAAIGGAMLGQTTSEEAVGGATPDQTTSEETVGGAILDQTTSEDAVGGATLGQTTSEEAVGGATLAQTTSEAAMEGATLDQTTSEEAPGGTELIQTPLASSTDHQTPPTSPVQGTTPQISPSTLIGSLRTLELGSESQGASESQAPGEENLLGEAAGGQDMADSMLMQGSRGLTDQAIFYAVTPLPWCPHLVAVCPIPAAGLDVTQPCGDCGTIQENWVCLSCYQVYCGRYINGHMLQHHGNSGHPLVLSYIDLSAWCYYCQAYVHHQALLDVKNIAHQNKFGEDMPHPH

[2] = target: Histone deacetylase 1 (Homo sapiens, UniProt Q13547); test: Inhibition of recombinant full length human C-terminal FLAG/His-tagged HDAC1 (1 to 482 residues) expressed in baculovirus infected Sf21 cells using RHK-K(Ac)-AMC as substrate measured after 60 mins by fluorimetric assay
Histone deacetylase 1, sequence (Q13547 whole entry, the tested form may be a part): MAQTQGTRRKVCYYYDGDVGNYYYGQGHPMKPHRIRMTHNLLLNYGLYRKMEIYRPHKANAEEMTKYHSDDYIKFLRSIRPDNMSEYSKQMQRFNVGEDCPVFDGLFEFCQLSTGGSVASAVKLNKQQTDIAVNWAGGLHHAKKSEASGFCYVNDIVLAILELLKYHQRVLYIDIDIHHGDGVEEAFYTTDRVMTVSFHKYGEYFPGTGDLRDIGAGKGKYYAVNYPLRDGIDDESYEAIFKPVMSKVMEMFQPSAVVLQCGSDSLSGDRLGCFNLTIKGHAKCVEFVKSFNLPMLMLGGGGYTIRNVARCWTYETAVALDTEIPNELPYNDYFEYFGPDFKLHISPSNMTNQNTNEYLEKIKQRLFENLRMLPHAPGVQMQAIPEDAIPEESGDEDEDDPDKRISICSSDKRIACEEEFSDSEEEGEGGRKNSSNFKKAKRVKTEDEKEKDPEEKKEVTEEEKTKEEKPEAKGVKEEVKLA

[3] = tested on: SH-SY5Y; test: Neuroprotective activity against OGD-induced hypoxic injury in human SH-SY5Y cells assessed as LDH release at 1 nM to 10 uM incubated under oxygen/glucose deprivation-induced hypoxic medium by LDH assay; format: functional, cell-based
[4] = target: Histone deacetylase 2 (Homo sapiens, UniProt Q92769); test: Inhibition of recombinant human C-terminal GST-tagged HDAC2 (1 to 488 residues) expressed in baculovirus infected sf21 cells using RHK-K(Ac)-AMC as substrate after 60 mins by fluorimetry assay
Histone deacetylase 2, sequence (Q92769 whole entry, the tested form may be a part): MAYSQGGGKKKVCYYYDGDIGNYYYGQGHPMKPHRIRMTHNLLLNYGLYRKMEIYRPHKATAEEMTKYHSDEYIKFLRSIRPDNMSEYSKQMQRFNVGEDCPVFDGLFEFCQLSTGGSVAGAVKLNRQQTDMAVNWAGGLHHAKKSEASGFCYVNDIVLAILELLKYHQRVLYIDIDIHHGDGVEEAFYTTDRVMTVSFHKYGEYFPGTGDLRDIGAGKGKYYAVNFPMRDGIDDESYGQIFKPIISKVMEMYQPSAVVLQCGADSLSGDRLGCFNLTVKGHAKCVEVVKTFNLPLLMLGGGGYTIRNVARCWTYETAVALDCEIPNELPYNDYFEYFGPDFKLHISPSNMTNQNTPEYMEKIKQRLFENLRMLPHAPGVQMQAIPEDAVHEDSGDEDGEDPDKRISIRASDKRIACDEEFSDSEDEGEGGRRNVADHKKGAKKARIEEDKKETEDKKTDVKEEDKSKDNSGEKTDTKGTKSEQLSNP

[5] = target: T2, Histone deacetylase 8 (Homo sapiens, UniProt Q9BY41); test: Inhibition of recombinant C-terminal His-tagged and N-terminal Streptavidin2-tagged human HDAC8 (1 to 377 residues) expressed in baculovirus infected insect cells using RHK-K(Ac)-AMC as substrate after 60 mins by fluorescence assay
T2 sequence (Q9BY41 whole entry): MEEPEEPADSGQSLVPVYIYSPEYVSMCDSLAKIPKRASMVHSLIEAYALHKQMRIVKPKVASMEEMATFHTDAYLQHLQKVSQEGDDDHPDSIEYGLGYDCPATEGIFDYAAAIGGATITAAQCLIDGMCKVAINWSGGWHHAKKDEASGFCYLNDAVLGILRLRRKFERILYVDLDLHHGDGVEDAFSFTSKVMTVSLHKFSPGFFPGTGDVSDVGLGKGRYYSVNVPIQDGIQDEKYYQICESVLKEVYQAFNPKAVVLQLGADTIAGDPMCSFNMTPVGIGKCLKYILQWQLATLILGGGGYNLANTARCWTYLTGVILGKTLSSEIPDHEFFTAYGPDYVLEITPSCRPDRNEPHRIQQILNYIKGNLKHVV

[6] = tested on: SH-SY5Y; test: Neuroprotective activity against OGD-induced hypoxic injury in human SH-SY5Y cells assessed as LDH release at 1 uM incubated under oxygen/glucose deprivation-induced hypoxic medium by LDH assay (reference value: 27.47 +/- 3.23 %); format: functional
[7] = tested on: SH-SY5Y; test: Neuroprotective activity against OGD-induced hypoxic injury in human SH-SY5Y cells assessed as LDH release at 5 uM incubated under oxygen/glucose deprivation-induced hypoxic medium by LDH assay (reference value: 27.47 +/- 3.23 %); format: functional
[8] = tested on: SH-SY5Y; test: Neuroprotective activity against OGD-induced hypoxic injury in human SH-SY5Y cells assessed as LDH release at 10 uM incubated under oxygen/glucose deprivation-induced hypoxic medium by LDH assay (reference value: 27.47 +/- 3.23 %); format: functional
[9] = tested on: Mus musculus; test: (§1) Anti-vascular cognitive impairment activity against bilateral common carotid artery occlusion-induced vascular dementia C57BL/6J mouse model assessed as improvement in short-term non-spatial working memory by measuring increase in novel object recognition at 25 mg/kg, ip administered post surgery measured after 3 months by novel object recognition test; format: functional, organism-based
[10] = tested on: Mus musculus; test: (§2) Anti-vascular cognitive impairment activity against bilateral common carotid artery occlusion-induced vascular dementia C57BL/6J mouse model assessed as ratio of cerebral blood flow in right parietal area at 25 mg/kg, ip administered post surgery measured after 3 months (reference value: 0.761 +/- 0.037); format: functional
[11] = tested on: Mus musculus; test: Upregulation of acetylated H3K14 protein expression in hippocampus of bilateral common carotid artery occlusion-induced vascular dementia C57BL/6J mouse model at 25 mg/kg, ip measured after 3 months by Western blot analysis; format: functional, organism-based
[12] = tested on: Mus musculus; test: as §1, with “1 month” for “3 months”; format: functional, organism-based
[13] = tested on: Mus musculus; test: (§3) Anti-vascular cognitive impairment activity against bilateral common carotid artery occlusion-induced vascular dementia C57BL/6J mouse model assessed as reversal of hippocampal atrophy by measuring increase in hippocampal volume at 25 mg/kg, ip administered post surgery measured after 3 months by 7T-MRI analysis; format: functional, organism-based
[14] = tested on: Mus musculus; test: as §2, with “left” for “right”, “months(reference” for “months (reference”, “0.792” for “0.761”, “0.029)” for “0.037)”; format: functional
[15] = tested on: Mus musculus; test: as §3, with “ratio of size of hippocampus to lateral ventricle” for “hippocampal volume”; format: functional, organism-based

| IC50 [1] [nM] | IC50 ([4]; sf21) | IC50 [5] [nM] | IC50 ([2]; read-out: IC50) [nM] | IC50 ([4]; read-out: IC50) [nM] | SMILES | Activity [3] | Activity [7] [%] | Activity [8] [%] | also measured |
| --- | --- | --- | --- | --- | --- | --- | --- | --- | --- |
| > 10000 | Not Active | > 10000 | – | – | O=C(CCC(=O)NCCCN1c2ccccc2CCc2ccc(Cl)cc21)NO | inactive | – | – | IC50 ([2]; sf21): Not Active |
| – | – | – | – | – | CN(C)CCCN1c2ccccc2CCc2ccc(Cl)cc21 | inactive | – | – | – |
| 2070 | – | 3090 | 6800 | 9620 | O=C(CCCCC(=O)NCCCN1c2ccccc2CCc2ccc(Cl)cc21)NO | inactive | – | – | – |
| 2610 | Not Active | 1510 | – | – | O=C(NO)c1ccc(CNCCCN2c3ccccc3CCc3ccc(Cl)cc32)cc1 | inactive | – | – | IC50 ([2]; sf21): Not Active |
| 658 | Not Active | 2330 | – | – | O=C(CCCCCCC(=O)NCCCN1c2ccccc2CCc2ccc(Cl)cc21)NO | – | 74.3 | 97.21 | Activity [6]: 43.16%; IC50 ([2]; sf21): Not Active |
| – | – | – | – | – | O=C(CCCCCCC(=O)Nc1ccccc1)NO [VORINOSTAT] | – | – | – | Activity [9]: inactive; Ratio [10]: 0.83; Activity [11]: inactive; Activity [12]: Active; Activity [13]: inactive; Ratio [14]: 0.878; Activity [15]: inactive |
| 142 | – | 864 | 5450 | 3030 | O=C(CCCCCCCCC(=O)NCCCN1c2ccccc2CCc2ccc(Cl)cc21)NO | – | 84.35 | 65.87 | – |
| 144 | – | 1070 | 3400 | 2740 | O=C(CCCCCCCC(=O)NCCCN1c2ccccc2CCc2ccc(Cl)cc21)NO | – | 100.96 | 76.55 | – |
| 61.6 | – | 345 | 2140 | 3960 | O=C(CCCCCC(=O)NCCCN1c2ccccc2CCc2ccc(Cl)cc21)NO | – | 86.54 | 92.47 | – |
| 448 | – | 1780 | 7280 | 8620 | O=C(NO)c1ccc(C(=O)NCCCN2c3ccccc3CCc3ccc(Cl)cc32)cc1 | – | – | 30.74 | – |
| 821 | – | 2160 | 6050 | 8480 | O=C(/C=C/c1cccc(S(=O)(=O)NCCCN2c3ccccc3CCc3ccc(Cl)cc32)c1)NO | – | – | – | – |
| 762 | Not Active | 874 | > 10000 | – | O=C(/C=C/c1ccc(S(=O)(=O)NCCCN2c3ccccc3CCc3ccc(Cl)cc32)cc1)NO | – | – | – | – |
| 1440 | – | 1850 | 5100 | 5960 | O=C(CCCC(=O)NCCCN1c2ccccc2CCc2ccc(Cl)cc21)NO | inactive | – | – | – |
